Key:
HCT 116 cells = experiment: CellTiter-Glo assay in HCT 116 cells; format: cell-based, human; conditions: Homo sapiens, HCT-116, 120 h, 5 days incubation, 30 μM to 0.0015 μM
How it was run: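 Cells seeded at 1000/well in RPMI 1640 with 5% FCS, grown 24 h at 37 °C, then treated with 10 concentrations from 30 μM to 0.0015 μM (1:3 dilutions). After 5 days viability was read as ATP-based luminescence (CellTiter-Glo) following 30 min room-temperature equilibration and lysis.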

Aurora A = molecular target: T1, Aurora A (Homo sapiens, UniProt O14965); experiment: IC50 determination for inhibitors of Aurora A (96 MTP-ELISA); format: biochemical; conditions: His4-tagged full-length Aurora A 250 ng/ml, PKB-GSK2 200 nM, ATP 4 μM, 90 min at room temperature, read-out: IC50 Aurora A kinase inhibition
T1 construct: C-terminally Histidine4 (His4)-tagged Aurora A full-length protein
T1 sequence (O14965 1-403): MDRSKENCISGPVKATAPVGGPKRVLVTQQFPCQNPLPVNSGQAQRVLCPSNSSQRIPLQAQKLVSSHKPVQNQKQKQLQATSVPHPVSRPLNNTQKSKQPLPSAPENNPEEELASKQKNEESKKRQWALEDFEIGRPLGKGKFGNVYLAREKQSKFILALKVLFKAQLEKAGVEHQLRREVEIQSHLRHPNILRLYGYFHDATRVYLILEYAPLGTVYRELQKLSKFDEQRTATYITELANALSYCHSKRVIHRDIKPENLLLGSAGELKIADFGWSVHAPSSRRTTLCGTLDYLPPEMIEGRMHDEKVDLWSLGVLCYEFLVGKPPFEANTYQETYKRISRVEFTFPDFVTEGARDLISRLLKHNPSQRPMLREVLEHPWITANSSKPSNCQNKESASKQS

Compound | IC50 (HCT 116 cells) | IC50 (Aurora A)
Cc1cc(Nc2nn(-c3ccc(NC(=O)C(C)(C)C)cc3)c(=O)c3ccccc23)n[nH]1 [Example T-3, 2,2-Dimethyl-N-{4-[4-(5-methyl-1H-pyrazol-3-ylamino)-1-oxo-1H-phthalazin-2-yl]-phenyl}-propionamide] | 100 to 10000 nM | 100 to 1000 nM
COCc1ccc2c(Nc3cc(C)[nH]n3)nn(C(C)C)c(=O)c2c1 [Example K-1, 2-Isopropyl-7-methoxymethyl-4-(5-methyl-1H-pyrazol-3-ylamino)-2H-phthalazin-1-one] | 100 to 10000 nM | 1 to 100 nM
COc1ccc2c(=O)n(C(C)C)nc(Nc3cc(C)[nH]n3)c2c1 [Example G-9, 2-Isopropyl-6-methoxy-4-(5-methyl-1H-pyrazol-3-ylamino)-2H-phthalazin-1-one] | 100 to 10000 nM | 1 to 100 nM
Cc1cc(Nc2nn(C(C)C)c(=O)c3cc(N(C)C(=O)OC(C)(C)C)ccc23)[nH]n1 [Example I-14, [3-Isopropyl-1-(5-methyl-2H-pyrazol-3-ylamino)-4-oxo-3,4-dihydro-phthalazin-6-yl]-methyl-carbamic acid tert-butyl ester] | 100 to 10000 nM | 1 to 100 nM
COCCn1nc(Nc2cc(C)n[nH]2)c2ccccc2c1=O [Example O-1, 2-(2-Methoxyethyl)-4-(5-methyl-2H-pyrazol-3-ylamino)-2H-phthalazin-1-one] | 10000 to 100000 nM | 100 to 1000 nM
CC(C)n1nc(Nc2cc(C3CC3)n[nH]2)c2ccc(N(C)C)cc2c1=O [Example F-9, 4-(5-Cyclopropyl-2H-pyrazol-3-ylamino)-7-dimethylamino-2-isopropyl-2H-phthalazin-1-one] | 100 to 10000 nM | 1 to 100 nM
Cc1cc(Nc2nn(-c3ccc(C(C)(C)C)cc3)c(=O)c3cc([N+](=O)[O-])ccc23)[nH]n1 [Example ZB-3, 2-(4-tert-Butyl-phenyl)-4-(5-methyl-2H-pyrazol-3-ylamino)-7-nitro-2H-phthalazin-1-one] | 100 to 10000 nM | 1 to 100 nM

More lines, now with the values ahead:

IC50 (HCT 116 cells) | IC50 (Aurora A) | Compound
100 to 10000 nM | 1 to 100 nM | Cc1cc(Nc2nn(Cc3ccccc3)c(=O)c3cc(N4CCOCC4)ccc23)n[nH]1 [Example F-4, 2-Benzyl-4-(5-methyl-1H-pyrazol-3-ylamino)-7-morpholino-2H-phthalazin-1-one]
10000 to 100000 nM | 100 to 1000 nM | Cc1cc(Nc2nn(CC(O)c3ccccc3)c(=O)c3ccccc23)n[nH]1 (stereo not shown) [Example E-13, 2-(2-Hydroxy-2-phenyl-ethyl)-4-(5-methyl-1H-pyrazol-3-ylamino)-2H-phthalazin-1-one]
100 to 10000 nM | 1 to 100 nM | Cc1cc(Nc2nn(C(C)C)c(=O)c3cc(OCc4ccccn4)ccc23)n[nH]1 [Example G-2, 2-Isopropyl-4-(5-methyl-1H-pyrazol-3-ylamino)-7-(pyridin-2-ylmethoxy)-2H-phthalazin-1-one]
100 to 10000 nM | 100 to 1000 nM | CNC(=O)c1ccc(-n2nc(Nc3cc(C)[nH]n3)c3ccccc3c2=O)cc1 [Example S-1, N-Methyl-4-[4-(5-methyl-1H-pyrazol-3-ylamino)-1-oxo-1H-phthalazin-2-yl]-benzamide]
